Assay results: publication PMC4481117 (Molecular Pain, 2015)

Legend:
[1] = tested on: wild-type HEK293 cells; assay: Transwell migration of wild-type HEK293 cells to Dyn A; assay type: cell-based, Human; details: 16 h at 37 °C
Experimental: Fig. 6 Migration of Mac-1-expressing cells to Dyn A in a Transwell system. a, Mac-1-expressing HEK 293 cells (100 μl at 3 × 10^6 cell/ml) were added to the upper wells of the transwell chamber and their ability to migrate to different concentrations of Dyn A placed in the lower chamber was analyzed. After 16 hours at 37 °C, migrated cells were fixed, stained, and counted. Data are presented as numbers of migrated cells per field ± S.E. for five random fields per well. The figure is representative of 5 experiments. b, Mac-1-expressing or wild-type HEK 293 cells were added to the upper wells of the transwell chamber and their ability to migrate to 10 μM Dyn A placed in the lower chamber was analyzed as in A. Some Mac-1-HEK293 cells were pretreated with 20 μg/ml of mAbs 44a (anti-αM), IB4 (anti-β2) or OKM1 (non function-blocking anti-αM) or medium alone before addition to the upper wells. ***, medium alone. […] The number of migrated cells was determined as in A. Data are presented as number of migrated cells per field ± S.E. for five random fields per well. […]
Migration assays with wild-type and Mac-1-expressing HEK293 cells and purified macrophages using Transwell inserts (5 μm pore size) were performed as previously described. […] The photographs were taken using a 20x objective and cells in […] and cells were counted. […]

[2] = tested on: U937 monocytic cells; assay: Chemotaxis migration assay of U937 cells to Dyn A agarose gel; assay type: cell-based, human; details: 10 μM Dyn A in agarose
Experimental: Fig. 7 Chemotactic response of U937 cells to Dyn A. a, schematic representation of the experimental format. U937 cells (5x10^4) were placed in the center of the coverslip between two agar gels, one containing Dyn A and control gel without Dyn A. After 2 h at 37 °C, a series of photographs was taken in the direction of migration at 1-mm intervals to count the number of migrating cells. b , representative images after 2 h of migration show the cells within the starting point (marked with a cross; right panels) and at the border of the Dyn A-containing agar drop (left panels). […] Two bottom panels show the experimental condition with no Dyn A gradient. c, quantification of U937 cells migrated from the initial point after 2 h based on the results shown in A (right panel). Migration of control untreated U937 cells that completely migrated from the initial point of cell placement was assigned a value of 100 %. In contrast, there was no cell migration without a Dyn A gradient (0 %). […] A representative experiment is shown. d, distribution of U937 cells between two gels: Dyn A-containing (on the left) and without Dyn A (on the right). “0” on abscissa corresponds to the initial point where cells were loaded and the numbers show the distance that cells migrated in both directions from the starting point. All cells in each of 10 consecutive fields towards the Dyn A-containing and empty gels were counted and plotted as a distance from the starting point
Chemotaxis assays using U937 monocytic cells were performed on 22 × 22 mm cover slips. 1 % agarose (Life Technologies, Carlsbad, CA) was dissolved in HBSS by heating. After cooling, the agarose solution was mixed with Dyn A to obtain a final concentration of 10 μM. A 10 μl drop of warm agarose solution containing Dyn A was placed at one corner of the cover glass at ~1.5 mm from the edge. A control agarose drop was placed diagonally at the opposite corner of the cover glass. Agarose was allowed to solidify for 5 min, and the cover glasses were placed into wells of the 6-well plate filled with 5 ml of RPMI 1640 + 10 % FBS. A 10-μl aliquot of U937 cells (5x10^4) was loaded in the center of the cover glass and the plate was incubated for 2 h at 37 °C in a humidified atmosphere containing 5 % CO2. In this experimental format, the cells sediment approximately 5 min after loading, forming an ~4 mm circle, and begin to migrate towards the Dyn A-containing agarose drop. […] The photographs were taken at 1-mm intervals in the direction of cell migration towards the dynorphin-containing or control agarose drops without dynorphin A. The number of cells at the starting point and in each of 10 consecutive fields towards the dynorphin-containing and empty gels were counted and plotted as a distance from the starting point.

[3] = tested on: mouse peritoneal macrophages; details: cited from earlier work
Source text: Apart from their effects on κ-opioid receptors on neurons, Dyn A exerts numerous effects on leukocytes, particularly myeloid cells. […] Similar to other cationic peptides, Dyn A can exert some effects essential for host defense.

## CC[C@H](C)[C@H](NC(=O)[C@H](CCCNC(=N)N)NC(=O)[C@H](CCCNC(=N)N)NC(=O)[C@H](CC(C)C)NC(=O)[C@H](Cc1ccccc1)NC(=O)CNC(=O)CNC(=O)[C@@H](N)Cc1ccc(O)cc1)C(=O)N[C@@H](CCCNC(=N)N)C(=O)N1CCC[C@H]1C(=O)N[C@@H](CCCCN)C(=O)N[C@@H](CC(C)C)C(=O)N[C@@H](CCCCN)C(=O)N[C@@H](Cc1c[nH]c2ccccc12)C(=O)N[C@@H](CC(=O)O)C(=O)N[C@@H](CC(N)=O)C(=O)N[C@@H](CCC(N)=O)C(=O)O [Dyn A]
[1]
  Migration of wild-type HEK293 cells (in words): did not migrate
[2]; 2 h, no inhibitor
  Distance travelled by majority of untreated cells towards Dyn A: ~ 8 mm
[2]; 2 h at 37 °C
  Chemotaxis of U937 cells (in words): efficiently migrated along the gradient of Dyn A
[3]
  Phagocytosis by mouse peritoneal macrophages: enhance phagocytosis by mouse peritoneal macrophages
